According to ChEMBL document CHEMBL1148729, “Specific plant terpenoids and lignoids possess potent antiviral activities against severe acute respiratory syndrome coronavirus” (J Med Chem, 2007):

Legend:
SARS-CoV [1] = experiment: Inhibition of SARS coronavirus-induced cytopathogenicity in Vero E6 cells at 10 uM; type: functional; details: Severe acute respiratory syndrome-related coronavirus
SARS-CoV [2] = experiment: Inhibition of SARS coronavirus-induced cytopathogenicity in Vero E6 cells at 20 uM; type: functional; details: Severe acute respiratory syndrome-related coronavirus
SARS-CoV [3] = experiment: Antiviral activity against SARS coronavirus in Vero E6 cells assessed as inhibition of viral replication by ELISA; type: functional, organism-based; details: Severe acute respiratory syndrome-related coronavirus
SARS-CoV [4] = experiment: Inhibition of SARS virus-induced cytopathogenicity in Vero E6 cells at 3.3 uM; type: functional; details: Severe acute respiratory syndrome-related coronavirus
[5] = Cytotoxicity against Vero E6 cells by MTT assay; type: cell-based; details: chlorocebus sabaeus
[6] = Selectivity index, Ratio of CC50 for Vero E6 cells to EC50 for SARS coronavirus; type: functional
SARS-CoV [7] = experiment: Inhibition of SARS virus-induced cytopathogenicity in Vero E6 cells at 1 uM; type: functional; details: Severe acute respiratory syndrome-related coronavirus
Replicase polyprotein 1a = Replicase polyprotein 1a (Severe acute respiratory syndrome-related coronavirus, UniProt P0C6U8); experiment: Inhibition of SARS coronavirus 3CL protease

| SMILES | inhibition at 10 µM (SARS-CoV [1]) [%] | inhibition at 20 µM (SARS-CoV [2]) [%] | EC50 (SARS-CoV [3]) [µM] | inhibition at 3.3 µM (SARS-CoV [4]) [%] | CC50 [5] [µM] | Ratio CC50/EC50 [6] | inhibition at 1 µM (SARS-CoV [7]) [%] | IC50 (Replicase polyprotein 1a) [µM] | Ki (Replicase polyprotein 1a) [µM] |
| --- | --- | --- | --- | --- | --- | --- | --- | --- | --- |
| COc1cc(C2c3cc(OC(=O)c4ccccc4)c(OC)cc3C[C@@H](CO)[C@@H]2CO)ccc1OC(=O)c1ccccc1 (stereo not given in full) | < 25 | < 25 |  |  |  |  |  |  |  |
| CC(=O)Oc1cc2c(cc1C(C)C)C=C[C@H]1C(C)(C)[C@@H](OC(C)=O)CC[C@]21C | 25 | < 25 | 1.57 | 25 | 303 | 193 |  |  |  |
| CC(C)C1=C(O)C(=O)C2=C(C=C[C@H]3C(C)(C)CCC[C@]23C)C1=O | 25 | < 25 | 5.55 |  | 89.7 | 16.2 |  |  |  |
| CC(C)C1=C[C@]2(O)CC[C@H]3C(C)(C)CCC[C@]3(C)C2=CC1=O | < 25 | < 25 | 1.47 | 50 | > 750 | >510 |  |  |  |
| COc1c(C(C)C)cc2c(c1O)[C@@]1(C)CCCC(C)(C)[C@@H]1C[C@@H]2O | < 25 | < 25 | 1.15 |  | 127 | 111 |  |  |  |
| C[C@@H]1CC[C@H]2[C@@](C)(CO)[C@H]3C[C@@]12CC[C@@]3(C)O | 25 | < 25 | > 10 | 50 | > 750 |  |  |  |  |
| CC(C)c1ccc2c(c1)C(=O)C[C@H]1C(C)(C)CCC[C@]21C | < 25 | < 25 | 4 |  | 305 | 76.3 |  |  |  |
| CC1=C[C@@H]2[C@@H](CC1)[C@](C)(O)CC[C@H]2C(C)C | 25 | < 25 | 4.44 | 25 | 76.8 | 17.3 | 50 |  |  |
| C=C(C)[C@@H]1CC[C@]2(C(=O)O)CC[C@]3(C)[C@H](CC[C@@H]4[C@@]5(C)CC[C@H](O)C(C)(C)[C@@H]5CC[C@]43C)[C@@H]12 [BETULINIC ACID] | 25 | < 25 | > 10 | 50 | 150 | <15 |  | 10 | 8.2 |
| C=C(C)[C@@H]1CC[C@]2(C(=O)O)CC[C@]3(C)[C@H](CC[C@@H]4[C@@]5(C)CCC(=O)C(C)(C)[C@@H]5CC[C@]43C)[C@@H]12 [BETUNOLIC ACID] | < 25 | < 25 | 0.63 |  | 112 | 180 |  | > 100 |  |
| C=C[C@@]1(C)CC(=O)[C@]2(O)[C@@]3(C)[C@@H](O)CCC(C)(C)[C@@H]3[C@H](O)[C@H](OC(C)=O)[C@@]2(C)O1 [COLFORSIN] | 25 | < 25 | 7.5 | 50 | 674 | 89.8 |  |  |  |
| COc1c(C(C)C)cc2c(c1O)[C@@]1(C)CCCC(C)(C)[C@@H]1CC2=O [CRYPTOJAPONOL] | < 25 | < 25 | > 10 |  | 78.5 | <7.9 |  |  |  |
| COc1cc(/C=C/C(=O)CC(=O)/C=C/c2ccc(O)c(OC)c2)ccc1O [CURCUMIN] | 50 | 25 | > 10 |  | > 250 |  |  | 40 |  |
| CC(C)c1cc2c(cc1O)[C@@]1(C)CCCC(C)(C)[C@@H]1CC2 [FERRUGINOL] | < 25 | < 25 | 1.39 | 25 | 80.4 | 58 |  |  |  |
| O=C1OC[C@H](Cc2ccc3c(c2)OCO3)[C@H]1Cc1ccc2c(c1)OCO2 [HINOKININ] | 25 | < 25 | > 10 | 25 | > 750 |  | 50 | > 100 |  |
| C=CCc1ccc(O)c(-c2ccc(O)c(CC=C)c2)c1 [HONOKIOL] | < 25 | < 25 | 6.5 | 25 | 88.9 | 13.7 |  |  |  |
| C=CCc1ccc(O)c(-c2cc(CC=C)ccc2O)c1 [MAGNOLOL] | < 25 | < 25 | 3.8 | 50 | 68.3 | 18 |  |  |  |
| O=C(Nc1ccc([N+](=O)[O-])cc1Cl)c1cc(Cl)ccc1O [NICLOSAMIDE] | 25 | < 25 | < 0.1 | 25 | 22.1 | >221 | 50 | 40 |  |
| C=C1CC[C@@H]2[C@](C)(CCC[C@]2(C)C(=O)O)[C@H]1CCC1=CCOC1=O [PINUSOLIDIC ACID] | < 25 | < 25 | 4.71 |  | > 750 | >159 |  |  |  |
| O=C1OC[C@H](Cc2ccc3c(c2)OCO3)/C1=C\c1ccc2c(c1)OCO2 [SAVININ] | < 25 | < 25 | 1.13 |  | > 750 | >667 |  | 25 | 9.1 |
| CC(C)c1cc2c(cc1O)[C@@]1(C)CCCC(C)(C)[C@@H]1CC2=O [SUGIOL] | < 25 | < 25 |  |  |  |  |  |  |  |
| CC(C)[C@@H]1NC(=O)[C@H](C)OC(=O)[C@@H](C(C)C)NC(=O)[C@@H](C(C)C)OC(=O)[C@H](C(C)C)NC(=O)[C@H](C)OC(=O)[C@@H](C(C)C)NC(=O)[C@@H](C(C)C)OC(=O)[C@H](C(C)C)NC(=O)[C@H](C)OC(=O)[C@@H](C(C)C)NC(=O)[C@@H](C(C)C)OC1=O [VALINOMYCIN] | 25 | < 25 | 1.63 | 25 | 67.5 | 41.4 | 50 |  |  |
